This is an account of results in patent publication EP4653437A2 (Innovo Therapeutics Inc., priority 2023, dated 2024).

SMILES strings stand for the structures.

Test [1] deals with A549 cells. Put plainly: Measurement of PGE2-increasing activity in A549 cells (IL-1β stimulated, PGE2 quantified in supernatant). It is filed as cell-based. As to conditions: Homo sapiens, 24 h; concentration of 1 µM of each compound; IL-1β treated A549 cells; read-out: Increased PGE2 production in A549 cells. The procedure, abridged:
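PGE2 secreted into the supernatant was measured by immunoassay 24 h after treatment. Before treatment, A549 cells were cultured 24 h in 10% FBS F12K, washed, and placed in serum-free medium containing compound (DMSO 0.1% final) plus or minus IL-1β, incubated at 37 °C, 5% CO2.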

Test [2] concerns the target T1, human 15-PGDH (Homo sapiens, UniProt P15428).
T1 construct: purchased R&D System 5660-DH
T1 sequence (P15428 1-266): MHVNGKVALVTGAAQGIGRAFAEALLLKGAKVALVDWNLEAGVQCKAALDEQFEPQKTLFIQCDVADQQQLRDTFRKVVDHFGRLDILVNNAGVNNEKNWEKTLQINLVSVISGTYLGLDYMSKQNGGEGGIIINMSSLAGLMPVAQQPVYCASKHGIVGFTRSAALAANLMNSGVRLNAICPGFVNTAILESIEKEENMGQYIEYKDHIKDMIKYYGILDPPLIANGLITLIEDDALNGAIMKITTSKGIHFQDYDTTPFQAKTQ
Put plainly: Evaluation of 15-PGDH inhibitory activity (fluorescence enzyme assay, NAD+/PGE2). It is filed as biochemical. The note with it: human 15-PGDH enzyme, fluorescence Vmax. Here is the method: 15-PGDH inhibition activity of Example compounds was measured as follows. 6.7 ng of human 15-PGDH (R&D System# 5660-DH) enzyme (10 µL) was added to a black 96 well plate, 60 µL of buffer (50 mM Tris-HCl, pH 7.5, 0.01% Tween 20) was added, and 10 µL of 200 µM β-Nicotinamide adenine dinucleotide sodium salt (Sigma, Cat# N0632-5G) was added. 10 µL of (10x) compound solution in DMSO was added and reacted for 10 minutes at room temperature.

Regarding `Cc1ncc(-c2cc(-c3cccc4c(C(=O)N5CCCCC5)cnn34)cc(N3CCOC3=O)n2)cn1` [Example 372, 3-(6-(2-methylpyrimidin-5-yl)-4-(3-(piperidine-1-carbonyl)pyrazolo[1,5-a]pyridin-7-yl)pyridin-2-yl)oxazolidin-2-one], the fold induction at 1 µM in test [1] was more than 1.5. The IC50 (usually the midpoint of a concentration-inhibition curve) in test [2] was not above 0.1 µM.

Take `O=C1NCc2ccc(-c3cccc4c(C(=O)N5CCC(F)CC5)cnn34)cc21` [Example 155, 6-(3-(4-fluoropiperidine-1-carbonyl)pyrazolo[1,5-a]pyridin-7-yl)isoindolin-1-one]: in test [1], the fold induction at 1 µM was more than 1.5. Besides, the IC50 in test [2] was not above 0.1 µM.

For `O=C(c1cncc(-c2cccc3c(C(=O)N4CCCCC4)cnn23)c1)N1CCNCC1` [Example 48, piperazin-1-yl(5-(3-(piperidine-1-carbonyl)pyrazolo[1,5-a]pyridin-7-yl)pyridin-3-yl)methanone], in test [1], the fold induction at 1 µM was less than 1.5. For the same compound, the IC50 in test [2] was not above 0.1 µM.

As to `O=C(NCc1cncs1)c1cncc(-c2cccc3c(C(=O)N4CCCCC4)cnn23)c1` [Example 57, 5-(3-(piperidine-1-carbonyl)pyrazolo[1,5-a]pyridin-7-yl)-N-(thiazol-5-ylmethyl)nicotinamide], in test [1], the fold induction at 1 µM is more than 1.5. In test [2], the IC50 is not above 0.1 µM.

On to `O=C(c1cnn2c(NCc3ncccn3)cccc12)N1CCCCC1` [Example 148, piperidin-1-yl(7-((pyrimidin-2-ylmethyl)amino)pyrazolo[1,5-a]pyridin-3-yl)methanone], for which, in test [1], the fold induction at 1 µM is more than 1.5. The IC50 in test [2] is not above 0.1 µM.

Turning to `CCCCC(=O)c1cnn2c(-c3cnc4ccccc4c3)cccc12` [Example 151, 1-(7-(quinolin-3-yl)pyrazolo[1,5-a]pyridin-3-yl)pentan-1-one], in test [1], the fold induction at 1 µM is more than 1.5. In addition, the IC50 in test [2] was not above 0.1 µM.

Take `N#Cc1ccc(-c2cccc3c(C(=O)N4CCCCC4)cnn23)c(F)c1` [Example 285, 3-fluoro-4-[3-(piperidine-1-carbonyl)pyrazolo[1,5-a]pyridin-7-yl]benzonitrile]: the fold induction at 1 µM in test [1] was more than 1.5. The same compound registered an IC50 in test [2] not above 0.1 µM.

For the compound `O=C(c1cnn2c(-c3ccccc3Cl)cccc12)N1CCCCC1` [Example 264, (7-(2-chlorophenyl)pyrazolo[1,5-a]pyridin-3-yl)(piperidin-1-yl)methanone], in test [1], the fold induction at 1 µM was more than 1.5. The compound also gave an IC50 in test [2] not above 0.1 µM.

For `O=C(c1cnn2c(-c3ccc([N+](=O)[O-])cc3)cccc12)N1CCC(F)CC1` [Example 157, (4-fluoropiperidin-1-yl)(7-(4-nitrophenyl)pyrazolo[1,5-a]pyridin-3-yl)methanone], the fold induction at 1 µM in test [1] was more than 1.5. For the same compound, the IC50 in test [2] is not above 0.1 µM.

For the compound `CN(C)c1cc(-c2cccc3c(C(=O)N4CCCCC4)cnn23)ccc1C#N` [Example 23, 2-(dimethylamino)-4-(3-(piperidine-1-carbonyl)pyrazolo[1,5-a]pyridin-7-yl)benzonitrile], the fold induction at 1 µM in test [1] was more than 1.5. Further, the IC50 in test [2] was not above 0.1 µM.

With `Nc1ccc(-c2cccc3c(C(=O)N4CCCCC4)cnn23)cn1` [Example 17, (7-(6-aminopyridin-3-yl)pyrazolo[1,5-a]pyridin-3-yl)(piperidin-1-yl)methanone], the fold induction at 1 µM in test [1] was less than 1.5. In test [2], this compound had an IC50 not above 0.1 µM.

For `COC(=O)c1ncc(-c2cccc3c(C(=O)N4CCCCC4)cnn23)cc1F` [Example 244, methyl 3-fluoro-5-[3-(piperidine-1-carbonyl)pyrazolo[1,5-a]pyridin-7-yl]pyridine-2-carboxylate], in test [1], the fold induction at 1 µM is less than 1.5. Moreover, the IC50 in test [2] is not above 0.1 µM.

In the case of `O=C(c1ncc(-c2cccc3c(C(=O)N4CCCCC4)cnn23)cc1Cl)N1CCC1` [Example 286, [7-[6-(azetidine-1-carbonyl)-5-chloro-3-pyridyl]pyrazolo[1,5-a]pyridin-3-yl]-(1-piperidyl)methanone], the fold induction at 1 µM in test [1] was more than 1.5. For the same compound, the IC50 in test [2] is not above 0.1 µM.

In the case of `O=C(c1ncc(-c2cccc3c(C(=O)N4CCCCC4)cnn23)cn1)N1CCC1` [Example 277, [7-[2-(azetidine-1-carbonyl)pyrimidin-5-yl]pyrazolo[1,5-a]pyridin-3-yl]-(1-piperidyl)methanone], the fold induction at 1 µM in test [1] is more than 1.5. In test [2], this compound had an IC50 not above 0.1 µM.

In the case of `O=C(c1cnn2c(-c3cnc(O)nc3)cccc12)N1CCCCC1` [Example 294, [7-(2-hydroxypyrimidin-5-yl)pyrazolo[1,5-a]pyridin-3-yl]-(1-piperidyl)methanone], in test [1], the fold induction at 1 µM was less than 1.5. Moreover, the IC50 in test [2] was not above 0.1 µM.

Regarding `COCCC(=O)Nc1ccc(-c2cccc3c(C(=O)N4CCCCC4)cnn23)cn1` [Example 103, 3-methoxy-N-(5-(3-(piperidine-1-carbonyl)pyrazolo[1,5-a]pyridin-7-yl)pyridin-2-yl)propanamide], the fold induction at 1 µM in test [1] was less than 1.5. The compound also returned an IC50 in test [2] not above 0.1 µM.

Regarding `Nc1nn2c(-c3ccc4c(c3)C(=O)NCC4)cccc2c1C(=O)N1CCCCC1` [Example 159, 7-(2-amino-3-(piperidine-1-carbonyl)pyrazolo[1,5-a]pyridin-7-yl)-3,4-dihydroisoquinolin-1(2H)-one], in test [1], the fold induction at 1 µM is more than 1.5. This compound also showed an IC50 in test [2] of 0.1 to 1 µM.

In the case of `CNC(=O)c1cccc(-c2cccc3c(C(=O)N4CCCCC4)cnn23)c1` [Example 27, N-methyl-3-(3-(piperidine-1-carbonyl)pyrazolo[1,5-a]pyridin-7-yl)benzamide], the fold induction at 1 µM in test [1] was less than 1.5. The IC50 in test [2] was not above 0.1 µM.

Consider `O=C(c1cnn2c(-c3cnc(-c4nnc(C(F)(F)F)o4)c(F)c3)cccc12)N1CCCCC1` [Example 394, [7-[5-fluoro-6-[5-(trifluoromethyl)-1,3,4-oxadiazol-2-yl]-3-pyridyl]pyrazolo[1,5-a]pyridin-3-yl]-(1-piperidyl)methanone], for which the fold induction at 1 µM in test [1] is more than 1.5. For the same compound, the IC50 in test [2] was not above 0.1 µM.

As to `O=C(Nc1ccncc1)c1cccc(-c2cccc3c(C(=O)N4CCCCC4)cnn23)c1` [Example 38, 3-(3-(piperidine-1-carbonyl)pyrazolo[1,5-a]pyridin-7-yl)-N-(pyridin-4-yl)benzamide], in test [1], the fold induction at 1 µM is more than 1.5. For the same compound, the IC50 in test [2] is not above 0.1 µM.

As for `Cn1cnc(Nc2cccc3c(C(=O)N4CCCCC4)cnn23)cc1=O` [Example 236, 3-methyl-6-[[3-(piperidine-1-carbonyl)pyrazolo[1,5-a]pyridin-7-yl]amino]pyrimidin-4-one], in test [1], the fold induction at 1 µM is more than 1.5. For the same compound, the IC50 in test [2] is not above 0.1 µM.

`CN(C)C1CN(c2ccc(-c3cccc4c(C(=O)N5CCCCC5)cnn34)cn2)C1` [Example 218, (7-(6-(3-(dimethylamino)azetidin-1-yl)pyridin-3-yl)pyrazolo[1,5-a]pyridin-3-yl)(piperidin-1-yl)methanone]: the fold induction at 1 µM in test [1] was more than 1.5. The compound also displayed an IC50 in test [2] not above 0.1 µM.

`O=C(Cc1cccnc1)Nc1c(F)cc(-c2cccc3c(C(=O)N4CCCCC4)cnn23)cc1F` [Example 278, N-(2,6-difluoro-4-(3-(piperidine-1-carbonyl)pyrazolo[1,5-a]pyridin-7-yl)phenyl)-2-(pyridin-3-yl)acetamide]: the fold induction at 1 µM in test [1] is more than 1.5. The same compound registered an IC50 in test [2] not above 0.1 µM.

In the case of `CN1CCC(C(=O)Nc2cccc(-c3cccc4c(C(=O)N5CCCCC5)cnn34)c2)CC1` [Example 93, 1-methyl-N-(3-(3-(piperidine-1-carbonyl)pyrazolo[1,5-a]pyridin-7-yl)phenyl)piperidine-4-carboxamide], the fold induction at 1 µM in test [1] was more than 1.5. For the same compound, the IC50 in test [2] was not above 0.1 µM.

Turning to `O=C(c1cnn2c(-c3ccc(N4CCOC4=O)nc3)cccc12)N1CCCCC1` [Example 316, 3-(5-(3-(piperidine-1-carbonyl)pyrazolo[1,5-a]pyridin-7-yl)pyridin-2-yl)oxazolidin-2-one], the fold induction at 1 µM in test [1] was more than 1.5. In addition, the IC50 in test [2] is not above 0.1 µM.

Turning to `Nc1n[nH]c2cc(-c3cccc4c(C(=O)N5CCCCC5)cnn34)ccc12` [Example 309, [7-(3-amino-1H-indazol-6-yl)pyrazolo[1,5-a]pyridin-3-yl]-(1-piperidyl)methanone], the fold induction at 1 µM in test [1] is more than 1.5. Also, the IC50 in test [2] is not above 0.1 µM.

Take `O=C(Nc1ccc(-c2cccc3c(C(=O)N4CCCCC4)cnn23)cn1)c1cccnc1` [Example 287, N-(5-(3-(piperidine-1-carbonyl)pyrazolo[1,5-a]pyridin-7-yl)pyridin-2-yl)nicotinamide]: the fold induction at 1 µM in test [1] was more than 1.5. Besides, in test [2], the IC50 is not above 0.1 µM.

For the compound `CN1CCN(C(=O)c2cncc(-c3cccc4c(C(=O)N5CCCCC5)cnn34)c2)CC1` [Example 49, (4-methylpiperazin-1-yl)(5-(3-(piperidine-1-carbonyl)pyrazolo[1,5-a]pyridin-7-yl)pyridin-3-yl)methanone], the fold induction at 1 µM in test [1] was more than 1.5. The IC50 in test [2] was not above 0.1 µM.

Turning to `COCCCNc1ccc(-c2cccc3c(C(=O)N4CCCCC4)cnn23)cn1` [Example 107, (7-(6-((3-methoxypropyl)amino)pyridin-3-yl)pyrazolo[1,5-a]pyridin-3-yl)(piperidin-1-yl)methanone], the fold induction at 1 µM in test [1] is more than 1.5. This compound also showed an IC50 in test [2] not above 0.1 µM.
